# Reference: patent US5731334A, “Method for treating cancer using taxoid onium salt prodrugs” (priority 1995, dated 1998)
# Entries after “also recorded” stand apart in the source; their conditions may differ. Like-named read-outs stand apart in the source and are kept apart here.
# How the values were obtained:
# [1] = system: M-24 metastatic melanoma cells; assay: XTT dye binding cytotoxicity assay, M-24; format: cell-based; conditions: Homo sapiens
# Experimental: (§1) All cell lines described herein were obtained from the ATCC and maintained in media formulations as recommended by the supplier. The cell lines were tested for mycoplasma contamination prior to incubation at 37° C. in 5% carbon dioxide. Normal human dermal fibroblasts, peripheral blood lymphoblasts and mammary epithelial cells were obtained from Clonogenic Cor., San Diego, Calif. and were maintained under the above incubation conditions in special media provided by the supplier.
# (§2) Antiproliferative activities of the onium salts were determined using the XTT dye binding assay. Cells were harvested with trypsin/EDTA (Irvine Scientific), washed, resuspended in the appropriate medium, and counted in a hemocytometer using Trypan Blue to determine viability. Then 10^4 cells/well were added to 96 well microtiter plates and incubated for 24 hours before addition of drug at concentrations in the range of 10^-4 to 10^-13 molar by direct addition from DMSO solutions. After 72 hours, XTT binding dye was added and incubation was continued for 4 hours. The inhibition of cell proliferation was quantified using a Molecular Devices Microplate Reader. The absorbance of XTT was measured at […]. The concentration of drug which inhibited growth of cells by 50% was calculated from duplicated determinations.
# [2] = system: SK-Mel-28 melanoma cells; assay: XTT dye binding cytotoxicity assay, SK-Mel-28; format: cell-based; conditions: Homo sapiens
# Experimental: as §1, §2
# [3] = system: A-549 lung carcinoma cells; assay: XTT dye binding cytotoxicity assay, A-549; format: cell-based; conditions: Homo sapiens
# Experimental: as §1, §2
# [4] = system: UCLA-P3 lung carcinoma cells; assay: XTT dye binding cytotoxicity assay, UCLA-P3; format: cell-based; conditions: Homo sapiens
# Experimental: as §1, §2
# [5] = system: BT-549 breast carcinoma cells; assay: XTT dye binding cytotoxicity assay, BT-549; format: cell-based; conditions: Homo sapiens
# Experimental: as §1, §2
# [6] = system: U-2511 CNS cancer cells; assay: XTT dye binding cytotoxicity assay, U-2511; format: cell-based; conditions: Homo sapiens, 72 h
# Experimental: as §1, §2
# [7] = system: Capan 1 pancreas cancer cells; assay: XTT dye binding cytotoxicity assay, Capan 1; format: cell-based; conditions: Homo sapiens
# Experimental: as §1, §2
# [8] = system: HT-29 colon carcinoma cells; assay: XTT dye binding cytotoxicity assay, HT-29; format: cell-based; conditions: Homo sapiens
# Experimental: as §1, §2
# [9] = system: OVCAR-3 ovarian carcinoma cells; assay: XTT dye binding cytotoxicity assay, OVCAR-3; format: cell-based; conditions: Homo sapiens
# Experimental: as §1, §2
# [10] = system: SIHA squamous carcinoma cells; assay: XTT dye binding cytotoxicity assay, SIHA; format: cell-based; conditions: Homo sapiens, 72 h
# Experimental: as §1, §2
# [11] = system: SK-N-SH neuroblastoma cells; assay: XTT dye binding cytotoxicity assay, SK-N-SH; format: cell-based; conditions: Homo sapiens, 72 h
# Experimental: as §1, §2
# [12] = system: 786-0 renal cell carcinoma cells; assay: XTT dye binding cytotoxicity assay, 786-0; format: cell-based; conditions: Homo sapiens
# Experimental: as §1, §2
# [13] = system: PC-3 prostate carcinoma cells; assay: XTT dye binding cytotoxicity assay, PC-3; format: cell-based; conditions: Homo sapiens, 72 h
# Experimental: as §1, §2
# [14] = system: Molt-4 T-cell leukemia cells; assay: XTT dye binding cytotoxicity assay, Molt-4; format: cell-based; conditions: Homo sapiens
# Experimental: as §1, §2
# [15] = system: HL-60 promyelocytic leukemia cells; assay: XTT dye binding cytotoxicity assay, HL-60; format: cell-based; conditions: Homo sapiens
# Experimental: as §1, §2
# [16] = system: L-1210 leukemia cells; assay: XTT dye binding cytotoxicity assay, L-1210; format: cell-based, mouse
# Experimental: as §1, §2
# [17] = system: CHO Chinese hamster ovary cells; assay: XTT dye binding cytotoxicity assay, CHO; format: cell-based; conditions: Cricetulus griseus, 72 h
# Experimental: as §1, §2
# [18] = system: HMEC mammary epithelial cells; assay: XTT dye binding cytotoxicity assay, HMEC; format: cell-based; conditions: Homo sapiens, 72 h
# Experimental: as §1, §2
# [19] = system: NHDF dermal fibroblast; assay: XTT dye binding cytotoxicity assay, NHDF; format: cell-based; conditions: Homo sapiens, 72 h
# Experimental: as §1, §2
# [20] = system: RPMI-7666 blood lymphoblasts; assay: XTT dye binding cytotoxicity assay, RPMI-7666; format: cell-based; conditions: Homo sapiens, 72 h
# Experimental: as §1, §2
# [21] = system: tubulin; assay: Tubulin polymerization-depolymerization (microtubule assembly-disassembly) assay; format: biochemical, calf; conditions: CaCl2, 10^-6 M drug, 37° C., in words
# [22] = system: intact Molt-4 cells; assay: Competition binding of tritiated compounds to intact Molt-4 cells; design: species or system human; conditions: calculated from slopes of linear portions of curves in FIG. 3; read-out: binding constant
# Experimental: The competition by nonradioactive taxol or c-2'-MPA-taxol for the binding of 1×10^-9 M tritiated compounds by intact Molt-4 cells is illustrated in FIG. 3. Tritiated taxol (Moravek Corp.) was treated with 2-fluoropyridiunium tosylate according to the method of Nicolaou et al. to yield the C-2'-MPT-^3 H-taxol. (Angew. Chem., Int. Ed. 1994: vol. 34, pp. 1583-1587.) Six well plates were incubated with 10^6 Molt-4 cells in 50 mM phosphate buffered saline (PBS) or PRPMI media to which 10^-9 M of the radiolabeled taxol or taxol onium salt was added together with increasing concentrations of nonradiolabeled compound. After 30 minutes, the cells were centrifuged, washed with PBS and 1% SDS was added. […] Alternatively, the cells may be lysed by sonication.
# [23] = system: human tumor xenografts; assay: In vivo antitumor effect (human tumor xenografts in nude mice)
# [24] = In vivo elimination in BALB/C mice; conditions: 24 hours after injection
# Experimental: C-2'-MPA-Taxol (1 mM in 0.9% saline solution, 400 μL) was injected along with tritiated taxol at 32000 cpm into normal BALB/C mice (4 mice each) housed in metabolic cages and the urine and feces were measured periodically in a scintillation counter using Achillea scintillation fluid.
# The antitumor activity of the onium salts of taxol were assessed in nude mice bearing tumors of human A-549 lung adenocarcinomas, Ovcar-3 ovarian carcinoma, and PC-3 prostate carcinoma cells. […] FIG. 5 illustrates antiproliferation results for 2'-MPA-3-thiophene-taxol (4) and 2' MPA taxol (2) for the Ovcar-3 human tumor xenograft. […] FIG. 6, summarizes the results for a PC-3, prostate tumor model study. Taxol was compared with both the 2'- and 7-substituted oxonium salts. […] Tritiated taxol and 2' MPA-taxol were used in drug elimination experiments in normal BALB/C mice. In both groups of mice of four animals each, only 4-5% of the administered radioactivity was measured in the combined urine and feces 24 hours after injection.
# [25] = cited from earlier work
# [26] = cited from earlier work; remark: listed apart in the source
# [27] = cited from earlier work; remark: listed apart in the source
# [28] = system: PC-3 prostate carcinoma tumor xenograft; assay: PC-3 prostate tumor xenograft in nude mice
# Experimental: (§3) Athymic nude mice were purchased from Harlan-Sprague-Dawley. The animals were housed in microisolated cases under positive air pressure and all manipulations and drug treatments were performed in a laminar flow cabinet. Tumor cells were grown under the above tissue culture conditions. Cell suspensions in RPMI medium were injected S./C. Treatment was started one day after inoculation by i.p. injection of 400 μl drug solutions. Tumors were measured 3 times weekly in two dimensions, using calipers and tumor volume as calculated using the formula (V=w^2 ×L×(3.142).
# The tumor model was generated from an ATTC PC-3 prostate carcinoma cell line that was maintained under standard cell proliferation conditions, viz. 37° C., 5% carbon dioxide in sterile air. Each cohort was comprised of eight randomly chosen female athymic nude mice, for a total population size of twenty four. Hemocytometer counted cells, suspended in Hanks mediun (Gibco, Grand Island N.Y.) were implanted S.C. (10^6 cells in 0.4 mL per mouse). Solid tumor growth was measured on each third day. Equimolar amounts of the test compounds (1.0 mM, 400 μL) were injected i.p. on days 1, 3, 5, 7, 9, and 11 using the following media:
# (.smallcircle.): Control, 5% dextrose in 5× distilled water (5 DW)
# (Δ): Taxol (18.0 mg/kg of animal weight or approximately 1.260 mg/m^2) suspended in Cremaphor/D5W
# Inferences about efficacy were drawn by ANOVA followed by protected t-test. […] Data shown as mean value with standard error.
# [29] = Comparative toxicities (lethality) in mice
# [30] = Toxicity and survival in vivo (tumor bearing nude mice); conditions: for Toxicity: Table II, in vivo; for % survival: at end of experiments
# [31] = Plasma stability and prodrug reversion (ethyl acetate extraction, HPLC)
# [32] = in vitro; conditions: human, plasma
# [33] = system: tumor cell lines; assay: Cytotoxicity, summary over tumor cell lines (XTT); format: cell-based, human and murine
# Experimental: Antiproliferative activities of the onium salts were determined using the XTT dye binding assay. Cells were harvested with trypsin/EDTA (Irvine Scientific), washed, resuspended in the appropriate medium, and counted in a hemocytometer using Trypan Blue to determine viability. […] After 72 hours, XTT binding dye was added and incubation was continued for 4 hours. The inhibition of cell proliferation was quantified using a Molecular Devices Microplate Reader. […] The concentration of drug which inhibited growth of cells by 50% was calculated from duplicated determinations.
# [34] = system: A549 lung adenocarcinoma tumor xenograft; assay: Human lung adenocarcinoma A549 xenograft in nude mice; conditions: 1.0 mM, 400 μL i.p. days 1, 3, 5, 7, 9, 11
# Experimental: as §3
# The tumor model was generated from A549 cell line, an ATTC that was maintained under standard cell proliferation conditions (37° C., 5% carbon dioxide in sterile air). Each cohort was comprised of six randomly chosen female athymic nude mice, for a total population size of twenty four mice. Hemocytometer counted cells, suspended in Hanks mediun (Gibco, Grand Island N.Y.) were implated S.C. (10^6 cells in 0.4 mL per mouse). Solid tumor growth was measured on each third day. Equimolar amounts of the test compounds (1.0 mM, 400 μL) were injected i.p. on days 1, 3, 5, 7, 9, and 11 using the following media:
# (Δ): Control, saline in 5× distilled water (5 DW)
# (.smallcircle.): Taxol (18.0 mg/kg of animal weight or approximately 1,260 mg/m^2) suspended in Cremaphor/D5W […]
compound,measurement,setting,value
"CC(=O)O[C@H]1C(=O)[C@@]2(C)[C@H]([C@H](OC(=O)c3ccccc3)[C@]3(O)C[C@H](OC(=O)[C@H](O)[C@@H](NC(=O)c4ccccc4)c4ccccc4)C(C)=C1C3(C)C)[C@]1(OC(C)=O)CO[C@@H]1C[C@@H]2O [Compound 1, reference compound]",IC50,"[1]; M24, 72 h",0.018 nM
same,IC50,"[2]; SK-MEL-28, 72 h",524 nM
same,IC50,"[3]; A549, 72 h",5.79 nM
same,IC50,"[4]; UCLA P-3, 72 h",0.66 nM
same,IC50,"[5]; BT-549, 72 h",0.066 nM
same,IC50,[6],15.6 nM
same,IC50,"[7]; CAPAN-1, 72 h",0.967 nM
same,IC50,"[8]; HT-29, 72 h",1.16 nM
same,IC50,"[9]; OVCAR-3, 72 h",0.74 nM
same,IC50,[10]; SiHa,8.89 nM
same,IC50,[11],2.38 nM
same,IC50,"[12]; 786-0, 72 h",10.8 nM
same,IC50,[13],1.01 nM
same,IC50,"[14]; MOLT-4, 72 h",0.096 nM
same,IC50,"[15]; HL-60, 72 h",0.061 nM
same,IC50,"[16]; Mus musculus, L1210, 72 h",3.24 nM
same,IC50,[17],615 nM
same,IC50,[18],62 nM
same,IC50,[19],765 nM
same,IC50,[20],584 nM
same,inhibition of calcium chloride induced depolymerization of microtubules,[21]; listed as taxol,essentially complete inhibition of depolymerization; also recorded: suppressed by taxol
same,Kd,[22],5 nM
same,in vivo antitumor efficacy in words,[23],"when taxol was administered at somewhat lower doses, its efficacy was significantly diminished"
same,administered radioactivity in the combined urine and feces,[24],4-5%
same,dose limiting toxicity,[25]; 300 mg/m^2 /day,peripheral neuropathy
same,tolerated taxol dose,"[25]; 24 hour i.v. infusion every 3 weeks, with G-CSF",250 mg/m^2
same,dose-limiting toxicity,"[26]; pediatric patients, 24 hour i.v. infusion",neurotoxicity
same,dose at which dose-limiting toxicity occurred,"[26]; pediatric patients, neurotoxicity",420 mg/m^2
same,recommended phase II dose,[26]; pediatric population,350 mg/m^2 /d
same,solubility in aqueous media,[27],low solubility
same,"antitumor activity, PC-3","[28]; 1.0 mM, 400 μL i.p., established tumors",regression of established tumors
same,"mice surviving treatment, PC-3",[28]; in vivo,3 out of 8 mice
same,"50% lethality, equivalent dose","[29]; mice, four times on alternating days, approximately equivalent dose","1,120-1,260 mg/m^2"
same,LD50,"[29]; mouse, in vivo",16 to 18 mg/kg
same,Toxicity,[30],high
same,% survival,[30],0-20%
same,in vivo tolerance / toxicity in words,[30]; nude mice,both visual toxicity and animal weight losses were observed
same,Plasma Stability t1/2,"[31]; human plasma, 37° C., Table II",stable
same,recovery,"[31]; human, plasma",95%
CC(=O)O[C@H]1C(=O)[C@@]2(C)[C@H]([C@H](OC(=O)c3ccsc3)[C@]3(O)C[C@H](OC(=O)[C@H](Oc4cccc[n+]4C)[C@@H](NC(=O)c4ccccc4)c4ccccc4)C(C)=C1C3(C)C)[C@]1(OC(C)=O)CO[C@@H]1C[C@@H]2O [Compound 4],IC50,"[1]; M24, M-24, melanoma-metastatic, 72 h, read-out: IC50",0.54 nM
same,IC50,"[2]; SK-Mel-28, melanoma, 72 h, read-out: IC50",110 nM
same,IC50,"[3]; A549, A-549, lung carcinoma, 72 h, read-out: IC50",2.35 nM
same,IC50,"[4]; UCLA P-3, UCLA-P3, lung carcinoma, 72 h, read-out: IC50",1.88 nM
same,IC50,"[5]; BT-549, breast carcinoma, 72 h, read-out: IC50",0.11 nM
same,IC50,"[6]; U-2511, CNS cancer, read-out: IC50",31.7 nM
same,IC50,"[7]; Capan 1, pancreas cancer, 72 h, read-out: IC50",0.35 nM
same,IC50,"[8]; HT-29, colon carcinoma, 72 h, read-out: IC50",0.99 nM
same,IC50,"[9]; OVCAR-3, ovarian carcinoma, 72 h, read-out: IC50",0.86 nM
same,IC50,"[10]; SIHA, squamous carcinoma, read-out: IC50",7.55 nM
same,IC50,"[11]; neuroblastoma, read-out: IC50",4.18 nM
same,IC50,"[12]; 786-0, renal cell carcinoma, 72 h, read-out: IC50",11.5 nM
same,IC50,[13],1.15 nM
same,IC50,"[14]; Molt-4, T-cell leukemia, 72 h, read-out: IC50",0.066 nM
same,IC50,"[15]; HL-60, promyelocytic leukemia, 72 h, read-out: IC50",0.12 nM
same,IC50,"[16]; L1210, L-1210, mouse leukemia, 72 h, read-out: IC50",1.2 nM
same,IC50,"[17]; CHO, Chinese hamster ovary (untransformed), read-out: IC50",815 nM
same,IC50,"[18]; mammary epithelial cells (untransformed), read-out: IC50",219 nM
same,IC50,"[19]; dermal fibroblast (untransformed), read-out: IC50",655 nM
same,IC50,"[20]; RPMI-7666, blood lymphoblasts (untransformed), read-out: IC50",408 nM
same,inhibition of calcium chloride induced depolymerization of microtubules,[21],behaved in this assay similar to the C-2'-MPA isomer of taxol (2)
same,half-life,[32],14 min
same,recovery,[32],23%
same,Toxicity,[30],low
same,% survival,[30],100%
CC(=O)O[C@H]1C(=O)[C@@]2(C)[C@H]([C@H](OC(=O)c3ccccc3)[C@]3(O)C[C@H](OC(=O)[C@H](OC(=O)CS(=O)(=O)C(=O)O)[C@@H](NC(=O)c4ccccc4)c4ccccc4)C(C)=C1C3(C)C)[C@]1(OC(C)=O)CO[C@@H]1C[C@@H]2O [Compound 7],in vivo antitumor efficacy in words,[23],completely fails to exhibit any antitumor effects in vivo
same,cytotoxicity in words,[33],high cytotoxicity profile
same,"tumor growth inhibition, A549",[34],no significant growth inhibition
same,Toxicity,[30],low
same,% survival,[30],75%
same,half-life,"[31]; human, plasma",100 min
same,recovery,"[31]; human, plasma",34%
